Reference: patent publication US11083725B2 (priority 2014, dated 2021)

Tested on: NHBE cells
Experiment: Biolog metabolic array: substrate use by NHBE cells with or without CA09 infection
Type: cell-based, human
Details: for Substrate use, 590 nm absorbance normalized to zero hour, 0 hr: Biolog PMM2, 0 hr; for Substrate use, 590 nm absorbance normalized to zero hour, 1 hr: Biolog PMM2, 1 hr; for Substrate use, 590 nm absorbance normalized to zero hour, 5 hr: Biolog PMM2, 5 hr; for Substrate use, 590 nm absorbance normalized to zero hour, 7 hr: Biolog PMM2, 7 hr
[1] = Control (uninfected) NHBE cells
[2] = Virus (CA09, MOI 1) infected NHBE cells
[3] = Virus (CA09-infected, MOI 1) NHBE cells
[4] = Virus (CA09-infected NHBE cells, MOI 1)
[5] = Virus: CA09-infected NHBE cells, MOI 1, Biolog PMM2

N[C@@H](C(=O)O)[C@@H](O)[C@H](O)[C@H](O)CO [D-Glucosaminic Acid]
590 nm absorbance normalized to zero hour (substrate use), 0 hr [1]: 1.00
590 nm absorbance normalized to zero hour (substrate use), 1 hr [1]: 0.86
590 nm absorbance normalized to zero hour (substrate use), 2 hr [1]: 0.94
590 nm absorbance normalized to zero hour (substrate use), 3 hr [1]: 0.90
590 nm absorbance normalized to zero hour (substrate use), 4 hr [1]: 1.21
590 nm absorbance normalized to zero hour (substrate use), 6 hr [1]: 0.36
590 nm absorbance normalized to zero hour (substrate use), 8 hr [1]: 0.97
590 nm absorbance normalized to zero hour (substrate use), 9 hr [1]: 0.98
590 nm absorbance normalized to zero hour (substrate use), 10 hr [1]: 0.97
590 nm absorbance normalized to zero hour (substrate use), 11 hr [1]: 0.39
Substrate use, 590 nm absorbance normalized to zero hour, 0 hr [1]: 1.00
Substrate use, 590 nm absorbance normalized to zero hour, 1 hr [1]: 0.86
Substrate use, 590 nm absorbance normalized to zero hour, 5 hr [1]: 1.22
Substrate use, 590 nm absorbance normalized to zero hour, 7 hr [1]: 0.95
Substrate use, 590 nm absorbance normalized to zero hour, 0 hr [2]: 1.00
Substrate use, 590 nm absorbance normalized to zero hour, 1 hr [2]: 1.69
Substrate use, 590 nm absorbance normalized to zero hour, 5 hr [2]: 3.09
Substrate use, 590 nm absorbance normalized to zero hour, 7 hr [2]: 3.47
590 nm absorbance normalized to zero hour (substrate use), 0 hr [3]: 1.00
590 nm absorbance normalized to zero hour (substrate use), 1 hr [3]: 1.69
590 nm absorbance normalized to zero hour (substrate use), 2 hr [3]: 2.21
590 nm absorbance normalized to zero hour (substrate use), 3 hr [3]: 2.51
590 nm absorbance normalized to zero hour (substrate use), 4 hr [3]: 2.69
590 nm absorbance normalized to zero hour (substrate use), 6 hr [3]: 3.31
590 nm absorbance normalized to zero hour (substrate use), 8 hr [3]: 3.57
590 nm absorbance normalized to zero hour (substrate use), 9 hr [3]: 3.89
590 nm absorbance normalized to zero hour (substrate use), 10 hr [3]: 3.88
590 nm absorbance normalized to zero hour (substrate use), 11 hr [3]: 3.32

CCC(=O)C(=O)O [a-Keto-Butyric Acid]
590 nm absorbance normalized to zero hour (substrate use), 0 hr [1]: 1.00
590 nm absorbance normalized to zero hour (substrate use), 1 hr [1]: 1.10
590 nm absorbance normalized to zero hour (substrate use), 2 hr [1]: 1.17
590 nm absorbance normalized to zero hour (substrate use), 3 hr [1]: 1.24
590 nm absorbance normalized to zero hour (substrate use), 4 hr [1]: 1.25
590 nm absorbance normalized to zero hour (substrate use), 6 hr [1]: 1.49
590 nm absorbance normalized to zero hour (substrate use), 8 hr [1]: 1.34
590 nm absorbance normalized to zero hour (substrate use), 9 hr [1]: 1.36
590 nm absorbance normalized to zero hour (substrate use), 10 hr [1]: 1.37
590 nm absorbance normalized to zero hour (substrate use), 11 hr [1]: 1.39
Substrate use, 590 nm absorbance normalized to zero hour, 0 hr [1]: 1.00
Substrate use, 590 nm absorbance normalized to zero hour, 1 hr [1]: 1.10
Substrate use, 590 nm absorbance normalized to zero hour, 5 hr [1]: 1.28
Substrate use, 590 nm absorbance normalized to zero hour, 7 hr [1]: 1.33
590 nm absorbance normalized to zero hour (substrate use), 0 hr [4]: 1.00
590 nm absorbance normalized to zero hour (substrate use), 1 hr [4]: 0.28
590 nm absorbance normalized to zero hour (substrate use), 2 hr [4]: 0.29
590 nm absorbance normalized to zero hour (substrate use), 3 hr [4]: 0.30
590 nm absorbance normalized to zero hour (substrate use), 4 hr [4]: 0.31
590 nm absorbance normalized to zero hour (substrate use), 5 hr [4]: 0.32
590 nm absorbance normalized to zero hour (substrate use), 6 hr [4]: 0.32
590 nm absorbance normalized to zero hour (substrate use), 7 hr [4]: 0.33
590 nm absorbance normalized to zero hour (substrate use), 8 hr [4]: 0.33
590 nm absorbance normalized to zero hour (substrate use), 9 hr [4]: 0.34
590 nm absorbance normalized to zero hour (substrate use), 10 hr [4]: 0.34
590 nm absorbance normalized to zero hour (substrate use), 11 hr [4]: 0.34
590 nm absorbance normalized to zero hour (substrate use), 0 hr [5]: 1.00
590 nm absorbance normalized to zero hour (substrate use), 1 hr [5]: 0.28
590 nm absorbance normalized to zero hour (substrate use), 2 hr [5]: 0.29
590 nm absorbance normalized to zero hour (substrate use), 3 hr [5]: 0.30
590 nm absorbance normalized to zero hour (substrate use), 4 hr [5]: 0.31
590 nm absorbance normalized to zero hour (substrate use), 5 hr [5]: 0.32
590 nm absorbance normalized to zero hour (substrate use), 6 hr [5]: 0.32
590 nm absorbance normalized to zero hour (substrate use), 7 hr [5]: 0.33
590 nm absorbance normalized to zero hour (substrate use), 8 hr [5]: 0.33
590 nm absorbance normalized to zero hour (substrate use), 9 hr [5]: 0.34
590 nm absorbance normalized to zero hour (substrate use), 10 hr [5]: 0.34
590 nm absorbance normalized to zero hour (substrate use), 11 hr [5]: 0.34

O=C(O)[C@H](O)[C@@H](O)[C@H](O)[C@H](O)CO[C@H]1O[C@H](CO)[C@H](O)[C@H](O)[C@H]1O [Melibionic Acid]
590 nm absorbance normalized to zero hour (substrate use), 0 hr [1]: 1.00
590 nm absorbance normalized to zero hour (substrate use), 1 hr [1]: 0.20
590 nm absorbance normalized to zero hour (substrate use), 2 hr [1]: 0.76
590 nm absorbance normalized to zero hour (substrate use), 3 hr [1]: 0.58
590 nm absorbance normalized to zero hour (substrate use), 4 hr [1]: 0.66
590 nm absorbance normalized to zero hour (substrate use), 6 hr [1]: 0.40
590 nm absorbance normalized to zero hour (substrate use), 8 hr [1]: 0.51
590 nm absorbance normalized to zero hour (substrate use), 9 hr [1]: 0.53
590 nm absorbance normalized to zero hour (substrate use), 10 hr [1]: 0.57
590 nm absorbance normalized to zero hour (substrate use), 11 hr [1]: 0.60
Substrate use, 590 nm absorbance normalized to zero hour, 0 hr [1]: 1.00
Substrate use, 590 nm absorbance normalized to zero hour, 1 hr [1]: 0.20
Substrate use, 590 nm absorbance normalized to zero hour, 5 hr [1]: 0.48
Substrate use, 590 nm absorbance normalized to zero hour, 7 hr [1]: 0.47
Substrate use, 590 nm absorbance normalized to zero hour, 0 hr [2]: 1.00
Substrate use, 590 nm absorbance normalized to zero hour, 1 hr [2]: 3.52
Substrate use, 590 nm absorbance normalized to zero hour, 5 hr [2]: 3.34
Substrate use, 590 nm absorbance normalized to zero hour, 7 hr [2]: 3.05
590 nm absorbance normalized to zero hour (substrate use), 0 hr [3]: 1.00
590 nm absorbance normalized to zero hour (substrate use), 1 hr [3]: 3.52
590 nm absorbance normalized to zero hour (substrate use), 2 hr [3]: 3.58
590 nm absorbance normalized to zero hour (substrate use), 3 hr [3]: 3.59
590 nm absorbance normalized to zero hour (substrate use), 4 hr [3]: 3.66
590 nm absorbance normalized to zero hour (substrate use), 6 hr [3]: 3.22
590 nm absorbance normalized to zero hour (substrate use), 8 hr [3]: 2.89
590 nm absorbance normalized to zero hour (substrate use), 9 hr [3]: 2.67
590 nm absorbance normalized to zero hour (substrate use), 10 hr [3]: 1.66
590 nm absorbance normalized to zero hour (substrate use), 11 hr [3]: 2.18
